# US20250195511A1, “INDAZOLE DERIVATIVES USEFUL AS INHIBITORS OF NOD-LIKE RECEPTOR PROTEIN 3” (Merck Sharp & Dohme LLC, priority 2023, published 2025)
# System: NLRP3 inflammasome
# Experiment: NLRP3 inflammasome activation: ASC-SPECK formation in gramicidin-stimulated THP-1 cells
# Assay type: cell-based
# Settings: PMA-treated human monocytic THP-1 cells, compound 1 h before 12.5 μg/ml gramicidin, 3-hour treatment
# Description: Activation of the canonical NLRP3 inflammasome requires two steps, priming and activation. A priming signal such as a pathogen activated molecular patterns (PAMPs) or danger-activated molecular patterns (DAMPs) are recognized by Toll-like receptors leads to nuclear factor kappa B (NF-KB)-mediated signaling. […] The second step is activation which induces oligomerization of NLRP3 and subsequent assembly of NLRP3, apoptosis-associated speck-like protein containing a CARD (ASC), and procaspase-1 into an inflammasome complex. This triggers the transformation of procaspase-1 to caspase-1, and the production and secretion of mature IL-1β and IL-18 (Kim et al., J. Inflamm. 2015, 12, 41; Ozaki et al., J. Inflamm. Res. 2015, 8, 15-27; Rabeony et al., Eur. J. Immunol. 2015, 45, 2847). During inflammasome complex assembly, the oligomerization of NLRP3 triggers the nucleation of ASC and an event commonly referred to as “ASC SPECK” formation, as it is identified in the cell as a discrete puncta within the cell after staining and visualization of ASC using common immunocytochemical methods.
# The ability of compounds to inhibit NLRP3 inflammasome activation was determined in vitro by monitoring formation of the ASC-SPECK in human monocytic THP-1 cells after stimulation. THP-1 cells (ATCC catalog #TIB-202) were maintained in complete growth media containing Roswell Park Memorial Institute RPMI (ATCC catalog #30-2001), 10% heat inactivated fetal bovine serum, 1× penicillin/streptomycin and 0.05 mM 2-mercaptoethanol. At the start of the assay, undifferentiated THP-1 cells were plated at a density of 20,000 cells per well in a 384-well plate (Poly-D-lysine coated Cell Carrier Ultra microplate, Perkin Elmer catalog #6057500) in complete growth media supplemented with 10 ng/ml phorbol 12-myristate 13-acetate (PMA; Sigma catalog #P8139), and then incubated overnight. The next day, media was replaced with assay media (RPMI (Gibco catalog #11875-093), 0.01% bovine serum albumin (BSA)). Compounds were serially diluted in DMSO and then added to wells one hour prior to the addition of 12.5 μg/ml Gramicidin (Enzo Lifescience, catalog #ALX-350-233-M005). All incubations were carried out at 37° C. (5% CO2/95% air). Following a 3-hour treatment with gramicidin, cells are fixed with 4% paraformaldehyde and stored at 4° C. until immunofluorescence staining.
# Immunofluorescence staining: Anti-ASC antibody (MBL catalog #D086-3) was desalted and labeled with Alexa 488 antibody labeling kit (Thermo catalog #A20181) prior to use as described below. After fixation, the following steps were carried out at rt. Cells were first permeabilized with 0.3% polyethylene glycol tert-octylphenyl ether (Triton X-100) in phosphate-buffered saline (PBS) for 15 minutes and then incubated in blocking buffer containing 5% goat serum, 0.3% polyethylene glycol sorbitan monolaurate (Tween-20) and 0.03% sodium azide in PBS for 1 hour. Cells were stained with a mixture of ASC-Alexa 488 antibody (diluted 1:200 in blocking buffer) and nuclear stain DRAQ5 (1:5000 in blocking buffer, Thermo catalog #62251) in blocking buffer for 1 hour. Following a wash with 0.3% polyethylene glycol sorbitan monolaurate (Tween-20) in PBS, plates were imaged with an Opera Phenix High Content Screening System. The number of DRAQ5 positive cells containing ASC SPECKS were quantified in each well.
# Data analysis: EC50 values were calculated by standard curve-fitting analysis using an internally developed program in TIBCO Spotfire software.
# [1] = Homo sapiens, THP-1, inhibition of ASC SPECK formation
# [2] = inhibition of ASC SPECK formation
EC50 [1] [nM],SMILES,EC50 [2] [nM]
814,"Cc1cc(C(F)(F)F)cc(O)c1-c1cnc2cn([C@]34CCC[C@H]3OCC4)nc2n1 (mixture of isomers) [Example 21, 2-(2-((3aS,6aR and 3aR,6aS)-hexahydro-3aH-cyclopenta[b]furan-3a-yl)-2H-pyrazolo[3,4-b]pyrazin-6-yl)-3-methyl-5-(trifluoromethyl)phenol]",
876,"Cc1cc(C(F)(F)F)cc(O)c1-c1cnc2cn(C3COC4(C)CC3C4)nc2n1 (racemic) [Example 19, (R and S)-3-methyl-2-(2-(1-methyl-2-oxabicyclo[3.1.1]heptan-4-yl)-2H-pyrazolo[3,4-b]pyrazin-6-yl)-5-(trifluoromethyl)phenol]",
186,"Cc1cc(C(F)(F)F)cc(O)c1-c1cnc2cn([C@@H]3CC[C@H](C#N)C3)nc2n1 (racemic) [Example 20, (1S,3R and 1R,3S)-3-(6-(2-hydroxy-6-methyl-4-(trifluoromethyl)phenyl)-2H-pyrazolo[3,4-b]pyrazin-2-yl)cyclopentane-1-carbonitrile]",
202,"Cc1cc(C(F)(F)F)cc(O)c1-c1cnc2cn(C3CCCOC34CCC4)nc2n1 (racemic) [Example 22, (S and R)-2-(2-(5-oxaspiro[3.5]nonan-9-yl)-2H-pyrazolo[3,4-b]pyrazin-6-yl)-3-methyl-5-(trifluoromethyl)phenol]",
461,"Cc1cc(C(F)(F)F)cc(O)c1-c1cnc2cn(C3CC34CCOCC4)nc2n1 (racemic) [Example 23, (S and R)-2-(2-(6-oxaspiro[2.5]octan-1-yl)-2H-pyrazolo[3,4-b]pyrazin-6-yl)-3-methyl-5-(trifluoromethyl)phenol]",
427,"Cc1cc(C(F)(F)F)cc(O)c1-c1cnc2cn(C34CC(C)(C3)OC4C)nc2n1 (racemic) [Example 24, (S and R)-2-(2-(1,3-dimethyl-2-oxabicyclo[2.1.1]hexan-4-yl)-2H-pyrazolo[3,4-b]pyrazin-6-yl)-3-methyl-5-(trifluoromethyl)phenol]",
261,"Cc1cc(C(F)(F)F)cc(O)c1-c1cnc2cn(C3COC4CC3C4)nc2n1 (racemic) [Example 25, (S and R)-2-(2-(2-oxabicyclo[3.1.1]heptan-4-yl)-2H-pyrazolo[3,4-b]pyrazin-6-yl)-3-methyl-5-(trifluoromethyl)phenol]",
279,"COc1ccc(CN2CC(n3nc4nc(-c5c(C)cc(C(F)(F)F)cc5O)cnc4c3C)CCC2=O)cc1 (racemic) [Example 107, (R and S)-5-(6-(2-hydroxy-6-methyl-4-(trifluoromethyl)phenyl)-3-methyl-2H-pyrazolo[3,4-b]pyrazin-2-yl)-1-(4-methoxybenzyl)piperidin-2-one]",
,"Cc1cc(C(F)(F)F)cc(O)c1-c1cnc2cn([C@@H]3C[C@@H]4C[C@H]3CO4)nc2n1 (single isomer, unassigned) [Example 3, 2-(2-((1S,4R,5R or 1R,4S,5S)-2-oxabicyclo[2.2.1]heptan-5-yl)-2H-pyrazolo[3,4-b]pyrazin-6-yl)-3-methyl-5-(trifluoromethyl)phenol]",35
,"Cc1cc(C(F)(F)F)cc(O)c1-c1cnc2cn([C@H]3C[C@H]4C[C@@H]3CO4)nc2n1 (single isomer, unassigned) [Example 4, 2-(2-((1R,4S,5S or 1S,4R,5R)-2-oxabicyclo[2.2.1]heptan-5-yl)-2H-pyrazolo[3,4-b]pyrazin-6-yl)-3-methyl-5-(trifluoromethyl)phenol]",34
,"Cc1cc(C(F)(F)F)cc(O)c1-c1cnc2cn(C3C4CS(=O)(=O)CC43)nc2n1 (single isomer, unassigned) [Example 53, (1R,5S,6S or 1R,5S,6R)-6-(6-(2-hydroxy-6-methyl-4-(trifluoromethyl)phenyl)-2H-pyrazolo[3,4-b]pyrazin-2-yl)-3-thiabicyclo[3.1.0]hexane 3,3-dioxide]",981
